{"source": "patent US9085527B2", "about": "“Fatty acid acylated salicylates and their uses” (Catabasis Pharmaceuticals, Inc., priority 2008, dated 2015)", "data": [{"system": "NFκB", "assay": "NFκB-driven luciferase reporter in RAW 264.7 cells challenged with LPS", "format": "cell-based, mouse", "conditions": "Mus musculus, RAW264.7, 200 ng/mL LPS for 3 hours, read-out: NFκB Inhibitory Activity, IC50 μM", "method": "RAW 264.7 cells transfected with an NFκB-driven luciferase reporter are plated in 96 well plates. Cells are treated with Vehicle (0.1% ethanol) or test compounds for 2 hours. As a positive control for inhibition of NFκB signaling, 6 wells are treated with 10 μM dexamethasone. Cells are then challenged with 200 ng/mL LPS for 3 hours in the presence of test compounds. A subset of wells treated with vehicle should remain unstimulated with LPS to determine the floor signal of the assay. NFκB driven luciferase activity is developed by addition of BriteLite luciferase kit (Perkin-Elmer) and measured using a Victor V plate reader. NFκB activity (luciferase activity) for each treatment was normalized to Vehicle wells treated with LPS (% NFκB Response). AlamarBlue was used to monitor cell viability to ensure that inhibition of luciferase signal was not a result of compound cytotoxicity.\nRAW 264.7 cells stably expressing a 3×NF-κB response element-driven luciferase reporter were seeded into 96 well plates. After 18 hours, cells were pre-treated with compounds of the invention for 2 hours, and then stimulated with LPS (lipopolysaccharide, 200 ng/mL) or vehicle control for 3 h in the presence of the compounds of the invention. A set of six vehicle was left unstimulated with LPS in order to measure the assay floor. AlamarBlue viability dye (Invitrogen) was added to cells simultaneously with the delivery of LPS (final AlamarBlue concentration of 10%). After the 3 h incubation period with LPS, cell viability was measured by reading fluorescence (excitation 550 nm, emission 595 nm) with a Perkin Elmer Victor V plate reader. Then cell media was aspirated from each well. Luciferase signal was then developed by addition of the Britelite Plus reagent (Perkin Elmer). Luciferase activity was measured with the Perkin Elmer Victor V plate reader. NF-κB activity was expressed as a percent of the vehicle control wells (stimulated with LPS). Compounds were tested at 6 dose point titrations in triplicate to determine IC50 values.", "units": {"IC50": "µM"}, "values": [{"smiles": "Nc1ccc(O)c(C(=O)O)c1", "note": "[Compound 5-ASA, 5-aminosalicylic acid, reference compound]", "IC50": "> 200"}, {"smiles": "CC/C=C\\C/C=C\\C/C=C\\C/C=C\\C/C=C\\C/C=C\\CCC(=O)Nc1cccc(C(=O)O)c1", "note": "[Compound 17, 3-(4Z,7Z,10Z,13Z,16Z,19Z)-docosa-4,7,10,13,16,19-hexaenamidobenzoic acid]", "IC50": "< 200"}, {"smiles": "CCCCC/C=C\\C/C=C\\C/C=C\\C/C=C\\CCCC(=O)Nc1ccc(O)c(C(=O)O)c1", "note": "[Compound 18, 2-hydroxy-5-(5Z,8Z,11Z,14Z)-icosa-5,8,11,14-tetraenamidobenzoic acid]", "IC50": "> 200"}, {"smiles": "CC/C=C\\C/C=C\\C/C=C\\C/C=C\\C/C=C\\C/C=C\\CCC(=O)NC(CC(C)C)C(=O)Oc1ccccc1C(=O)OCC", "note": "(centres unmarked) [Compound I-1, ethyl 2-(2-(4Z,7Z,10Z,13Z,16Z,19Z)-docosa-4,7,10,13,16,19-hexaenamido-4-methylpentanoyloxy)benzoate]", "IC50": "< 200"}, {"smiles": "CC/C=C\\C/C=C\\C/C=C\\C/C=C\\C/C=C\\C/C=C\\CCC(=O)NCCSSCCNC(=O)c1ccccc1O", "note": "[Compound I-2, N-(2-(2-(2-(4Z,7Z,10Z,13Z,16Z,19Z)-docosa-4,7,10,13,16,19-hexaenamidoethyl)disulfanyl)ethyl)-2-hydroxybenzamide]", "IC50": "< 200"}, {"smiles": "CC/C=C\\C/C=C\\C/C=C\\C/C=C\\C/C=C\\C/C=C\\CCC(=O)NCCOCCNC(=O)c1ccccc1O", "note": "[Compound I-3, N-(2-(2-(4Z,7Z,10Z,13Z,16Z,19Z)-docosa-4,7,10,13,16,19-hexaenamidoethoxy)ethyl)-2-hydroxybenzamide]", "IC50": "< 200"}, {"smiles": "CC/C=C\\C/C=C\\C/C=C\\C/C=C\\C/C=C\\C/C=C\\CCC(=O)NCC(C)(C)NC(=O)c1ccccc1O", "note": "[Compound I-4, N-(1-(4Z,7Z,10Z,13Z,16Z,19Z)-docosa-4,7,10,13,16,19-hexaenamido-2-methylpropan-2-yl)-2-hydroxybenzamide]", "IC50": "< 200"}, {"smiles": "CC/C=C\\C/C=C\\C/C=C\\C/C=C\\C/C=C\\C/C=C\\CCC(=O)NCCN(C)CCNC(=O)c1ccccc1O", "note": "[Compound I-7, N-(2-((2-(4Z,7Z,10Z,13Z,16Z,19Z)-docosa-4,7,10,13,16,19-hexaenamidoethyl)(methyl)amino)ethyl)-2-hydroxybenzamide]", "IC50": "< 200"}, {"smiles": "CC/C=C\\C/C=C\\C/C=C\\C/C=C\\C/C=C\\C/C=C\\CCC(=O)O", "note": "[DHA, docosahexaenoic acid, reference compound]", "IC50": "> 200"}, {"smiles": "CC/C=C\\C/C=C\\C/C=C\\C/C=C\\C/C=C\\C/C=C\\CCC(=O)NC(CC(C)C)C(=O)Nc1ccc(O)c(C(=O)O)c1", "note": "(centres unmarked) [III-6, 5-(2-(4Z,7Z,10Z,13Z,16Z,19Z)-docosa-4,7,10,13,16,19-hexaenamido-4-methylpentanamido)-2-hydroxybenzoic acid]", "IC50": "< 200"}, {"smiles": "CC/C=C\\C/C=C\\C/C=C\\C/C=C\\C/C=C\\C/C=C\\CCC(=O)Nc1ccc(O)c(C(=O)OC)c1", "note": "[IIIb-1, methyl 5-docosa-4,7,10,13,16,19-hexaenamido-2-hydroxybenzoate]", "IC50": "< 200"}, {"smiles": "CC/C=C\\C/C=C\\C/C=C\\C/C=C\\C/C=C\\C/C=C\\CCC(=O)NCC(=O)Nc1ccc(O)c(C(=O)O)c1", "note": "[IIIf-1, 5-(2-(4Z,7Z,10Z,13Z,16Z,19Z)-docosa-4,7,10,13,16,19-hexaenamidoacetamido)-2-hydroxybenzoic acid]", "IC50": "> 200"}, {"smiles": "CC/C=C\\C/C=C\\C/C=C\\C/C=C\\C/C=C\\C/C=C\\CCC(=O)NC(Cc1ccccc1)C(=O)Nc1ccc(O)c(C(=O)O)c1", "note": "(centres unmarked) [IIIf-2, 5-(2-(4Z,7Z,10Z,13Z,16Z,19Z)-docosa-4,7,10,13,16,19-hexaenamido-3-phenylpropanamido)-2-hydroxybenzoic acid]", "IC50": "> 200"}, {"smiles": "CC/C=C\\C/C=C\\C/C=C\\C/C=C\\C/C=C\\CCCC(=O)Nc1ccc(O)c(C(=O)O)c1", "note": "[IIIg-1, 2-hydroxy-5-(5Z,8Z,11Z,14Z,17Z)-icosa-5,8,11,14,17-pentaenamidobenzoic acid]", "IC50": "< 200"}, {"smiles": "CC/C=C\\C/C=C\\C/C=C\\C/C=C\\C/C=C\\C/C=C\\CCC(=O)Oc1ccc(-c2ccc(F)cc2F)cc1C(=O)OCC", "note": "[IVc-2, ethyl 4-((4Z,7Z,10Z,13Z,16Z,19Z)-docosa-4,7,10,13,16,19-hexaenoyloxy)-2′,4′-difluorobiphenyl-3-carboxylate]", "IC50": "< 200"}, {"smiles": "CC/C=C\\C/C=C\\C/C=C\\C/C=C\\C/C=C\\C/C=C\\CCC(=O)Oc1ccccc1C(=O)O", "note": "[Ia-1, 2-((4Z,7Z,10Z,13Z,16Z,19Z)-docosa-4,7,10,13,16,19-hexaenoyloxy)benzoic acid]", "IC50": "> 200"}, {"smiles": "CC/C=C\\C/C=C\\C/C=C\\C/C=C\\C/C=C\\C/C=C\\CCC(=O)NCCCOC(=O)c1ccccc1OC(C)=O", "note": "[Ic-1, 3-(4Z,7Z,10Z,13Z,16Z,19Z)-docosa-4,7,10,13,16,19-hexaenamidopropyl 2-acetoxybenzoate]", "IC50": "> 200"}, {"smiles": "CC/C=C\\C/C=C\\C/C=C\\C/C=C\\C/C=C\\C/C=C\\CCC(=O)OC(C)OC(=O)c1ccccc1OC(C)=O", "note": "(centres unmarked) [Ic-12, 1-((4Z,7Z,10Z,13Z,16Z,19Z)-docosa-4,7,10,13,16,19-hexaenoyloxy)ethyl 2-acetoxybenzoate]", "IC50": "< 200"}, {"smiles": "CC/C=C\\C/C=C\\C/C=C\\C/C=C\\C/C=C\\C/C=C\\CCC(=O)NCCNC(=O)c1ccccc1O", "note": "[Ih-1, N-(2-(4Z,7Z,10Z,13Z,16Z,19Z)-docosa-4,7,10,13,16,19-hexaenamidoethyl)-2-hydroxybenzamide]", "IC50": "< 200"}, {"smiles": "CC/C=C\\C/C=C\\C/C=C\\C/C=C\\C/C=C\\C/C=C\\CCC(=O)N1CCN(C(=O)c2ccccc2O)CC1", "note": "[Ih-2, (4Z,7Z,10Z,13Z,16Z,19Z)-1-(4-(2-hydroxybenzoyl)piperazin-1-yl)docosa-4,7,10,13,16,19-hexaen-1-one]", "IC50": "> 200"}, {"smiles": "CC/C=C\\C/C=C\\C/C=C\\C/C=C\\C/C=C\\C/C=C\\CCC(=O)NCCN(C)C(=O)c1ccccc1O", "note": "[Ih-3, N-(2-(4Z,7Z,10Z,13Z,16Z,19Z)-docosa-4,7,10,13,16,19-hexaenamidoethyl)-2-hydroxy-N-methylbenzamide]", "IC50": "< 200"}, {"smiles": "CC/C=C\\C/C=C\\C/C=C\\C/C=C\\C/C=C\\C/C=C\\CCC(=O)N(C)CCNC(=O)c1ccccc1O", "note": "[Ih-4, 2-hydroxy-N-(2-((4Z,7Z,10Z,13Z,16Z,19Z)—N-methyldocosa-4,7,10,13,16,19-hexaenamido)ethyl)benzamide]", "IC50": "< 200"}, {"smiles": "CC/C=C\\C/C=C\\C/C=C\\C/C=C\\C/C=C\\C/C=C\\CCC(=O)NCC(C)NC(=O)c1ccccc1O", "note": "(centres unmarked) [Ih-5, N-(1-(4Z,7Z,10Z,13Z,16Z,19Z)-docosa-4,7,10,13,16,19-hexaenamidopropan-2-yl)-2-hydroxybenzamide]", "IC50": "< 200"}, {"smiles": "CC/C=C\\C/C=C\\C/C=C\\C/C=C\\C/C=C\\C/C=C\\CCC(=O)NC(C)CNC(=O)c1ccccc1O", "note": "(centres unmarked) [Ih-6, N-(2-(4Z,7Z,10Z,13Z,16Z,19Z)-docosa-4,7,10,13,16,19-hexaenamidopropyl)-2-hydroxybenzamide]", "IC50": "< 200"}, {"smiles": "CC/C=C\\C/C=C\\C/C=C\\C/C=C\\C/C=C\\C/C=C\\CCC(=O)NC(C)C(C)NC(=O)c1ccccc1O", "note": "(centres unmarked) [Ih-7, N-(3-(4Z,7Z,10Z,13Z,16Z,19Z)-docosa-4,7,10,13,16,19-hexaenamidobutan-2-yl)-2-hydroxybenzamide]", "IC50": "< 200"}, {"smiles": "CC/C=C\\C/C=C\\C/C=C\\C/C=C\\C/C=C\\C/C=C\\CCC(=O)NCCNC(=O)c1ccc(C(F)(F)F)cc1O", "note": "[Ih-8, N-(2-(4Z,7Z,10Z,13Z,16Z,19Z)-docosa-4,7,10,13,16,19-hexaenamidoethyl)-2-hydroxy-4-(trifluoromethyl)benzamide]", "IC50": "> 200"}, {"smiles": "CC/C=C\\C/C=C\\C/C=C\\C/C=C\\C/C=C\\C/C=C\\CCC(=O)NCCNC(=O)c1cc(-c2ccc(F)cc2F)ccc1O", "note": "[Ih-9, N-(2-(4Z,7Z,10Z,13Z,16Z,19Z)-docosa-4,7,10,13,16,19-hexaenamidoethyl)-2′,4′-difluoro-4-hydroxybiphenyl-3-carboxamide]", "IC50": "< 200"}, {"smiles": "CC/C=C\\C/C=C\\C/C=C\\C/C=C\\C/C=C\\CCCC(=O)NCCNC(=O)c1cc(-c2ccc(F)cc2F)ccc1O", "note": "[Ih-10, 2′,4′-difluoro-4-hydroxy-N-(2-(5Z,8Z,11Z,14Z,17Z)-icosa-5,8,11,14,17-pentaenamidoethyl)biphenyl-3-carboxamide]", "IC50": "< 200"}, {"smiles": "CC/C=C\\C/C=C\\C/C=C\\C/C=C\\C/C=C\\C/C=C\\CCC(=O)NCCN1C(=O)CC(SC[C@H](NC(=O)c2ccccc2O)C(=O)OC)C1=O", "note": "(stereo partly drawn) [Ih-11, (R)-methyl 3-(1-(2-(4Z,7Z,10Z,13Z,16Z,19Z)-docosa-4,7,10,13,16,19-hexaenamidoethyl)-2,5-dioxopyrrolidin-3-ylthio)-2-(2-hydroxybenzamido)propanoate]", "IC50": "< 200"}, {"smiles": "CC/C=C\\C/C=C\\C/C=C\\C/C=C\\C/C=C\\CCCC(=O)NCCNC(=O)c1ccccc1O", "note": "[Ih-14]", "IC50": "< 200"}, {"smiles": "CC/C=C\\C/C=C\\C/C=C\\C/C=C\\C/C=C\\C/C=C\\CCC(=O)NC(Cc1ccccc1)C(=O)Oc1ccccc1C(=O)OCC", "note": "(centres unmarked) [Ii-3, ethyl 2-(2-(4Z,7Z,10Z,13Z,16Z,19Z)-docosa-4,7,10,13,16,19-hexaenamido-3-phenylpropanoyloxy)benzoate]", "IC50": "< 200"}, {"smiles": "CC/C=C\\C/C=C\\C/C=C\\C/C=C\\C/C=C\\C/C=C\\CCC(=O)NC(CC(C)C)C(=O)Oc1ccc(-c2ccc(F)cc2F)cc1C(=O)OCC", "note": "(centres unmarked) [Ii-4, ethyl 4-(2-(4Z,7Z,10Z,13Z,16Z,19Z)-docosa-4,7,10,13,16,19-hexaenamido-4-methylpentanoyloxy)-2′,4′-difluorobiphenyl-3-carboxylate]", "IC50": "> 200"}]}]}
